Laboratory results: PubChem BioAssay (NCI)
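Protocol summary: plate cells (96-well), add compound at 5 concentrations, incubate 48 h, interpolate endpoints linearly. TGI: concentration producing complete growth inhibition.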

Assays:
Assay in all cases: DTP human tumour cell line panel, 48 h
[1] = test system: A498 renal
[2] = test system: A549 NSCLC
[3] = test system: ACHN renal
[4] = test system: CAKI-1 renal
[5] = test system: COLO 205 colon
[6] = test system: DU-145 prostate
[7] = test system: EKVX NSCLC
[8] = test system: HCT-116 colon
[9] = test system: HCT-15 colon
[10] = test system: HOP-92 NSCLC
[11] = test system: HT29 colon
[12] = test system: IGROV1 ovarian
[13] = test system: KM12 colon
[14] = test system: M14 melanoma
[15] = test system: MDA-MB-231 breast
[16] = test system: MDA-MB-435
[17] = test system: MDA-N
[18] = test system: NCI-H226 lung
[19] = test system: NCI-H23 lung
[20] = test system: NCI/ADR-RES ovarian
[21] = test system: OVCAR-3 ovarian
[22] = test system: OVCAR-4 ovarian
[23] = test system: OVCAR-5 ovarian
[24] = test system: OVCAR-8 ovarian
[25] = test system: PC-3 prostate
[26] = test system: RXF 393 renal
[27] = test system: SF-268 CNS
[28] = test system: SF-295 CNS
[29] = test system: SF-539 CNS
[30] = test system: SK-MEL-28 melanoma
[31] = test system: SK-MEL-5 melanoma
[32] = test system: SN12C renal
[33] = test system: SNB-19 CNS
[34] = test system: SNB-75 CNS
[35] = test system: SW-620 colon
[36] = test system: TK-10 renal
[37] = test system: U251 CNS
[38] = test system: UO-31 renal

Measured: TGI

CSc1ccc(C(=C=C=C(c2ccc(SC)s2)c2ccc(SC)s2)c2ccc(SC)s2)s1
> 10 µM: all assays above
